This note sets out measurements from patent publication US20220257550A1, “REDUCING THE VIRAL ACTIVITY OF ELAFIBRANOR WITH RIBOFLAVIN OR DHA” (priority 2019, published 2022).

This experiment deals with Phage T4. As to the kind of experiment: Phage T4 titer in liquid culture of E. coli followed by plaque assay on agar plates (PFU). The experiment is classed as cell-based, bacteriophage T4 / E. coli 613. The note with it: compounds 0.02 mg/ml (each), vs untreated control, FIG. 1. On the procedure:
(§1) The number of phage particles (PFU) is given. Experiment were done in triplicate.
as §1
Nutritional Products Ltd (Kaiseraugst, Switzerland). All stock solutions were in 20 mg/ml DMSO. All compounds were used at a final concentration of 0.02 mg/ml.
E. coli was grown in liquid LB (lysogeny broth) medium. […] The number of phage particles (PFU) was determined by plating on agar.

On to `Cc1cc2nc3c(=O)[nH]c(=O)nc-3n(C[C@H](O)[C@H](O)[C@H](O)CO)c2cc1C` [Riboflavin], for which the “phage T4 PFU (number of phage particles)” value is “decreased” (MOI of 0.01, 3 hours at 30° C.) and “decreased” (MOI of 100/1).

Regarding `CSc1ccc(C(=O)/C=C/c2cc(C)c(OC(C)(C)C(=O)O)c(C)c2)cc1` [elafibranor, Elafibranor], the “phage T4 PFU (number of phage particles)” value is, setting by setting: (MOI of 0.01, 3 hours at 30° C.) “significantly increased”; (MOI of 100/1) “significantly increased”.
